Numbered stars: 1 amine (or outer) side, 2 acyl side, 3 side chain; on linkers, the order of the positions; unused ones are H or OH. Square brackets hold non-standard residues; d marks the D form. Peptide text beside a SMILES is read from it. * marks the point of attachment. Ala(1H-tetrazol-5-yl) = N[C@@H](Cc1nnn[nH]1)C(=O)O; Gly(cPent) = N[C@H](C(=O)O)C1CCCC1; X1 = C[C@H](N[*:1])C(=O)C(=O)[*:2]; Chg = N[C@H](C(=O)O)C1CCCCC1; OAll = C=CCO*
Target: Subtilisin-like protease 1 (Plasmodium vivax)
Assay: Inhibition of Plasmodium vivax SUB1 catalytic domain

Structure (SMILES) | IC50
C=CCOC(=O)CC[C@H](NC(=O)[C@H](CC(=O)O)NC(=O)C(=O)[C@H](C)NC(=O)[C@H](C)NC(=O)[C@@H](NC(=O)[C@@H](NC(C)=O)C1CCCCC1)[C@@H](C)O)C(N)=O (Ac-[Chg]TA[X1]DE(OAll)-NH2) | 150 nM
C=CCOC(=O)CC[C@H](NC(=O)[C@H](Cc1nnn[nH]1)NC(=O)C(=O)[C@H](C)NC(=O)[C@H](C)NC(=O)[C@@H](NC(=O)[C@@H](NC(C)=O)[C@@H](C)CC)[C@@H](C)O)C(N)=O (Ac-ITA[X1][Ala(1H-tetrazol-5-yl)]E(OAll)-NH2) | 2220 nM
C=CCOC(=O)CC[C@H](NC(=O)[C@H](CC(=O)O)NC(=O)C(=O)[C@H](C)NC(=O)[C@H](C)NC(=O)[C@@H](NC(=O)[C@@H](NC(C)=O)[C@@H](C)CC)[C@@H](C)O)C(N)=O (Ac-ITA[X1]DE(OAll)-NH2) | 100 nM
C=CCOC(=O)CC[C@H](NC(=O)[C@H](CC(=O)O)NC(=O)C(=O)[C@H](C)NC(=O)[C@H](C)NC(=O)[C@@H](NC(=O)[C@@H](NC(C)=O)C1CCCC1)[C@@H](C)O)C(N)=O | 70 nM
CC(=O)N[C@H](C(=O)N[C@H](C(=O)N[C@@H](C)C(=O)N[C@@H](C)C(=O)C(=O)N[C@@H](CC(=O)O)C(N)=O)[C@@H](C)O)C1CCCC1 (Ac-[Gly(cPent)]TA[X1]D-NH2) | 150 nM

From BindingDB's records for PubMed 38503166 (University of Paris)
